From publication PMC7614687, “Modulation of the substrate specificity of the kinase PDK1 by distinct conformations of the full-length protein*” (Science signaling, 2023)

Target: T1, SNAP-PDK1 (Homo sapiens, UniProt O15530)
T1 construct: SNAP-PDK1_50-556 (15 μM, in buffer Tris-HCl 50 mM pH 7.4); His (N); made in house; host or cells: insect cells
T1 sequence (O15530 50-556): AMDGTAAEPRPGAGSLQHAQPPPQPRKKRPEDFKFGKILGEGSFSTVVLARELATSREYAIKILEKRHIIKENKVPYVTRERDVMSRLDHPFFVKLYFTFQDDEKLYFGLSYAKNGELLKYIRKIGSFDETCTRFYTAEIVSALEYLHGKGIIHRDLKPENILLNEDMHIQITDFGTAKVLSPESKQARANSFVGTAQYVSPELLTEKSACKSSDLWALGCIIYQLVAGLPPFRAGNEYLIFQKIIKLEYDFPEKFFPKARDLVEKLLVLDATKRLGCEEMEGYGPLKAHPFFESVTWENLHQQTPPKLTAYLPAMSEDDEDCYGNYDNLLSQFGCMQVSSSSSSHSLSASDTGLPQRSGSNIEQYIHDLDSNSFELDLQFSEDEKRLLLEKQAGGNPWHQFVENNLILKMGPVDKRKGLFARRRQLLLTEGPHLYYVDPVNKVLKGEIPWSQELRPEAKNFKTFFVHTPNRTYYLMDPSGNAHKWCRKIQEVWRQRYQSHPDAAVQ
Assay: STORM-based single particle fluorescence of PDK1 monomers and dimers
Conditions: 15 μM HYG8
Procedure: SNAP-PDK1_50-556 (15 μM, in buffer Tris-HCl 50 mM pH 7.4, 200 mM NaCl, 200 mM imidazole and 1 mM DTT) was incubated with SNAP-Cell TMR-Star substrate (NEB) (30 μM) in the dark at room temperature for 1 h. Labelled SNAP-PDK1 was isolated by gel filtration using a PD MidiTrap G-25 Sephadex Column (GE). 10 μl labelled TMR-SNAP-PDK1 was diluted in buffer 50 mM Tris-HCl 50 mM pH 7.4 containing 100 mM NaCl and 1 mM DTT (control) or in the same buffer containing 15 μM HYG8 in a final volume of 20 μl. […] The slides were analysed using stochastic optical reconstruction microscopy (STORM) technology. Fluorescence from monomers was differentiated from that from dimers by the intensity of the fluorescence signals. […]
The STORM microscope used was custom-built around an OlympusIX-73 inverted microscope, as described previously ([96]). A 532 nm 1.5 W laser (Laser Quantum Ventus 532) was used for fluorescence excitation of TMR-Star. […] Images were recorded by an EMCCD camera (Andor iXon3 897). […] After calibration, the parameters selected in the STORM’s software were: shape, two color 120X; view, single; horizontal readout rate, 5.0 MHz; speed, 3.3 μs; clock voltage, normal; frame transfer mode, (select); set exposure time, 100 ms, real exposure time, 100 ms; real accumulation time, 102 ms; effective frame rate, 9.38 Hz; pre amplifier gain 5.1; electron multiplier gain, 30; laser power, 5 mW. […]

effect on proportion of PDK1 dimers: decreased the proportion of PDK1 dimers
SMILES: O=C(O[C@H]1[C@@H](OP(=O)(O)O)[C@H](OP(=O)(O)O)[C@@H](OP(=O)(O)O)[C@H](OP(=O)(O)O)[C@H]1OP(=O)(O)O)c1ccccc1 [HYG8, 2-O-benzoyl-IP5]
